The target of assay [1] is Serine/threonine-protein kinase/endoribonuclease IRE2 (Homo sapiens, UniProt Q76MJ5).
For assay [2], the target named is T1, Delta(24)-sterol reductase (Homo sapiens, UniProt Q15392).
T1 sequence (Q15392 whole entry): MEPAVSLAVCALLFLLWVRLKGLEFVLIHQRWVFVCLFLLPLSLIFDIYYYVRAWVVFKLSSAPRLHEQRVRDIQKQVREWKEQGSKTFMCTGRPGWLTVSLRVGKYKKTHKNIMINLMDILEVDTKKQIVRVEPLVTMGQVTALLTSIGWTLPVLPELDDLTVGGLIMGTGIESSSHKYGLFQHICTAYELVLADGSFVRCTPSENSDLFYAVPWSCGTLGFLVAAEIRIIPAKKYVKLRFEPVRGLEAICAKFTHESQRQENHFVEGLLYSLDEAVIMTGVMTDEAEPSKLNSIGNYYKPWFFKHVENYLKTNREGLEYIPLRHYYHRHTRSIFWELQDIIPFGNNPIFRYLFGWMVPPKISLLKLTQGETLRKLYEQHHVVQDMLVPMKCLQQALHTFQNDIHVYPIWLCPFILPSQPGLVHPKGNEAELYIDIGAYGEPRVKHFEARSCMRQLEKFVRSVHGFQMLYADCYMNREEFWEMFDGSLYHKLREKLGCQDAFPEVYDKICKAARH

Assay [3] deals with T2, Serine/threonine-protein kinase Nek9 (Homo sapiens, UniProt Q8TD19).
T2 sequence (Q8TD19 whole entry): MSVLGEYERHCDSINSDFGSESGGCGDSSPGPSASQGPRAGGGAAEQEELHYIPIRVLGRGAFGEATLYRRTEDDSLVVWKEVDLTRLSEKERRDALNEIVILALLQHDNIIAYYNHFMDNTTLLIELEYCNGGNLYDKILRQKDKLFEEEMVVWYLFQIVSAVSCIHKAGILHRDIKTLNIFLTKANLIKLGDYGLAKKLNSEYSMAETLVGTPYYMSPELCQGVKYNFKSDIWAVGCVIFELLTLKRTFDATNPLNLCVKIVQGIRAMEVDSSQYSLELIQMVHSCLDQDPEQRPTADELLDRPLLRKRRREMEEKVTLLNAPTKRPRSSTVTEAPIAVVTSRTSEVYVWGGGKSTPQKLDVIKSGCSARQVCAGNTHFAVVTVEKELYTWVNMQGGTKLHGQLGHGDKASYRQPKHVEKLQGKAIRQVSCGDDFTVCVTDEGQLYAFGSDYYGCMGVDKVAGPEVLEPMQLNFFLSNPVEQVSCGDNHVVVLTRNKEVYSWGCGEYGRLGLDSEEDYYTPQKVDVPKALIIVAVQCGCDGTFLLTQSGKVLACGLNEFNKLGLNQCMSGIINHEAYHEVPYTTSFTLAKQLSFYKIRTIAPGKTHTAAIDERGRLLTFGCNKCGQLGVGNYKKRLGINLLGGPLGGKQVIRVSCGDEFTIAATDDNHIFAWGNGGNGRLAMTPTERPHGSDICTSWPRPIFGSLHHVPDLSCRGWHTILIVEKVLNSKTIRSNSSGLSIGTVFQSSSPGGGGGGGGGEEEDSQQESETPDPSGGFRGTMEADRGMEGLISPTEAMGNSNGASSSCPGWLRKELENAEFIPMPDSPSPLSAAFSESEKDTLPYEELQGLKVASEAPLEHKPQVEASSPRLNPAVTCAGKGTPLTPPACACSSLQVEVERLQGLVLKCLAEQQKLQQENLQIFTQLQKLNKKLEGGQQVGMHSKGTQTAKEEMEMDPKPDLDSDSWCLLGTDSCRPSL

The target in another assay is DNA topoisomerase 2-beta (Homo sapiens, UniProt Q02880).
Chain of DNA topoisomerase 2-beta (Q02880 whole entry): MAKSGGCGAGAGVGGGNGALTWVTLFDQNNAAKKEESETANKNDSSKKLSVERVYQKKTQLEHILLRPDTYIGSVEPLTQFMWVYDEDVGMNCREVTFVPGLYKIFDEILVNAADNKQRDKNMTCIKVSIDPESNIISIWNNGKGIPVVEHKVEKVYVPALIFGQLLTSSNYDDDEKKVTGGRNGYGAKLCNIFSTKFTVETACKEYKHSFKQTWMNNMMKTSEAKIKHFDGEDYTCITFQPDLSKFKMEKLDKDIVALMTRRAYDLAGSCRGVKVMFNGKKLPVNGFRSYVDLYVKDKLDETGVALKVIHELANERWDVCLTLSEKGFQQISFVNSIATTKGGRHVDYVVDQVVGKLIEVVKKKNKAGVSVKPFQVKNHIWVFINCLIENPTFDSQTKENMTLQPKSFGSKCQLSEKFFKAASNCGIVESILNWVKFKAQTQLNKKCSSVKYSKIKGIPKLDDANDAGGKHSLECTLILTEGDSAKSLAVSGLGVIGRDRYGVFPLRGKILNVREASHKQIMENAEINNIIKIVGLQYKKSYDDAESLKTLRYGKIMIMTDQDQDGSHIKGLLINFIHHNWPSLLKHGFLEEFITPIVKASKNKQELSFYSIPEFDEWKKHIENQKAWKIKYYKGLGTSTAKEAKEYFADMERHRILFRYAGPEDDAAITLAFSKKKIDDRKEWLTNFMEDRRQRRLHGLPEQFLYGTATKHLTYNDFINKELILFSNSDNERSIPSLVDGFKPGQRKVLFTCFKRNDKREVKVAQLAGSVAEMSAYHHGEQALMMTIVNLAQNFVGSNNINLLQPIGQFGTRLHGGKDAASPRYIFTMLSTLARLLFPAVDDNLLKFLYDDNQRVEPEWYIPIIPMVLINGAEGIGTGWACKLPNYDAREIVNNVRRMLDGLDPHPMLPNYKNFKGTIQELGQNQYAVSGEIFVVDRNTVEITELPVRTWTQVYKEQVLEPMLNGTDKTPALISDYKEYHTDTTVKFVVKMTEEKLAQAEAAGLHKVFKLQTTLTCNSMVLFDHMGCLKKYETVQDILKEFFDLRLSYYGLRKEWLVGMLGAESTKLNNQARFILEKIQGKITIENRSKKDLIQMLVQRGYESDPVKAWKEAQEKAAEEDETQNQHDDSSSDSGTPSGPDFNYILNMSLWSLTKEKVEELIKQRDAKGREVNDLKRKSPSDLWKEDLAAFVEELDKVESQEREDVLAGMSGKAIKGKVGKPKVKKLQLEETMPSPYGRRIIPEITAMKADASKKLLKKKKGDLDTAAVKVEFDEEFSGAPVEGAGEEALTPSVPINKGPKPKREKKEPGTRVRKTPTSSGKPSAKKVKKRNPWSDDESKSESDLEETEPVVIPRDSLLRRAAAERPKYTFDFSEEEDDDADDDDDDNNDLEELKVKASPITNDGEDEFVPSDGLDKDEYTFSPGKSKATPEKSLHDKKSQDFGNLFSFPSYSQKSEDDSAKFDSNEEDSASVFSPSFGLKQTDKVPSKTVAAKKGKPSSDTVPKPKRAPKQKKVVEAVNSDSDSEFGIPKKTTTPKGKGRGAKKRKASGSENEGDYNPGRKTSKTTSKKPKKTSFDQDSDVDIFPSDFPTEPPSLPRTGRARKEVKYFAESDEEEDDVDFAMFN
Assay [4] addresses Serine/threonine-protein kinase PAK 2 (Homo sapiens, UniProt Q13177).
The target in assay [5] is Tyrosine-protein kinase SYK (Homo sapiens, UniProt P43405).
Assay [6] concerns the target T3, ATP-dependent RNA helicase DDX1 (Homo sapiens, UniProt Q92499).
T3 sequence (Q92499 whole entry): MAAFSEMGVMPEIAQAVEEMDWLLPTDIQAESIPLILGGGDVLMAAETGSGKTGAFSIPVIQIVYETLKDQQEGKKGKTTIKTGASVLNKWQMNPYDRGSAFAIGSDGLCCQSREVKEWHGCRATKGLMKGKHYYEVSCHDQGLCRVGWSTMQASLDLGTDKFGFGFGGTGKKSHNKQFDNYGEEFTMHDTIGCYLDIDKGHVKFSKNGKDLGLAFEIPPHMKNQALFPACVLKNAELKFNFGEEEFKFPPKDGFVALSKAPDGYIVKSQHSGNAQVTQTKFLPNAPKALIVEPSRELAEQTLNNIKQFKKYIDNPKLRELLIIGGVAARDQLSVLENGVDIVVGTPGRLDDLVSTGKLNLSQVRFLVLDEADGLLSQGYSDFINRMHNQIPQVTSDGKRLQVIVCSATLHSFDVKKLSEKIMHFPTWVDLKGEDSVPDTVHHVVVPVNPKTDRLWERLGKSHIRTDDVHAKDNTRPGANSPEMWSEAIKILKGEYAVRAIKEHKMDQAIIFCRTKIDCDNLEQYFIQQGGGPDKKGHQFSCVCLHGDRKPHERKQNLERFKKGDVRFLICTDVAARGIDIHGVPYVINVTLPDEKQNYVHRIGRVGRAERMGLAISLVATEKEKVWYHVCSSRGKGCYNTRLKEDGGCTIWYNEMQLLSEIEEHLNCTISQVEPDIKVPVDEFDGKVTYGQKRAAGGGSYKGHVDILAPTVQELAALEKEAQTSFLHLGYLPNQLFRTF

In assay [7] the target is T4, MAP kinase-activated protein kinase 5 (Homo sapiens, UniProt Q8IW41).
T4 sequence (Q8IW41 whole entry): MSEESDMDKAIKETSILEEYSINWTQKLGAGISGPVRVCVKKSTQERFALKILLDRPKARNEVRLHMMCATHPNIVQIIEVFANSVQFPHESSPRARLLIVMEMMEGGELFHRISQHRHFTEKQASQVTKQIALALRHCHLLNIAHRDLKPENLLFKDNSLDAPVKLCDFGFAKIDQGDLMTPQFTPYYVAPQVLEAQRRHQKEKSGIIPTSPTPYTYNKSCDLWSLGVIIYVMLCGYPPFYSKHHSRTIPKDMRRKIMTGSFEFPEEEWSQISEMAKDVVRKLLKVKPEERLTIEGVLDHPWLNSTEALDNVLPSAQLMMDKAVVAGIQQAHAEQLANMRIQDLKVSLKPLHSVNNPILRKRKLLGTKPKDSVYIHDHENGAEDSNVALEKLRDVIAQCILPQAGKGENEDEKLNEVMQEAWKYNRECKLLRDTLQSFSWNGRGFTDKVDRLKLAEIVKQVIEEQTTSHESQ

The next assay concerns the target Activated CDC42 kinase 1 (Homo sapiens, UniProt Q07912).

The values below come from ChEMBL document CHEMBL3991601, “The target landscape of clinical kinase drugs” (Science, 2017).

Each structure is given as a SMILES string. Activity calls are given as the source filed them.
Also: in the data inactive means no Kd found up to 30 µM.

Chain of Serine/threonine-protein kinase/endoribonuclease IRE2 (Q76MJ5 whole entry): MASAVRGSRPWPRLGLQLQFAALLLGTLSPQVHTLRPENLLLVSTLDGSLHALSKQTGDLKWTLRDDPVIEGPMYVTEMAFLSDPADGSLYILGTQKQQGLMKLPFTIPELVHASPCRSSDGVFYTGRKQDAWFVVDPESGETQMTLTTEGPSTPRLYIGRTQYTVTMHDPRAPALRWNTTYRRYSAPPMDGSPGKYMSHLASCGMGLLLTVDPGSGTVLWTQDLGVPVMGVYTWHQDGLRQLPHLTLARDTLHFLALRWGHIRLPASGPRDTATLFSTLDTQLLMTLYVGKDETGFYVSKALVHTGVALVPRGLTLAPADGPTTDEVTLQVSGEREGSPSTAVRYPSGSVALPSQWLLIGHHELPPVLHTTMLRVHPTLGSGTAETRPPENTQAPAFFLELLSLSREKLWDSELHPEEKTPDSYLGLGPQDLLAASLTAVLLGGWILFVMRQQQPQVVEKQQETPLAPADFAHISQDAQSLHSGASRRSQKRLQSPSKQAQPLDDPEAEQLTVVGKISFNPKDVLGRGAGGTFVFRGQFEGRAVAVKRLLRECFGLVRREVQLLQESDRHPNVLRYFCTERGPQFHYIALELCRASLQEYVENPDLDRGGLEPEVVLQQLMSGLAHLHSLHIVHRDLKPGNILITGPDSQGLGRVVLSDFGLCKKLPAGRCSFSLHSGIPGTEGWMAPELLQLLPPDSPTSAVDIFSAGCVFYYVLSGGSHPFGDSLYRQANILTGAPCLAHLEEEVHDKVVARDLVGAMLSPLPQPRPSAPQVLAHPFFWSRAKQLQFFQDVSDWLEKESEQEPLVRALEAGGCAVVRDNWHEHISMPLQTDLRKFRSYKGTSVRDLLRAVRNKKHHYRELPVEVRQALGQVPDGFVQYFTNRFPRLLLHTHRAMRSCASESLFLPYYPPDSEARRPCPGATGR
Chain of Activated CDC42 kinase 1 (Q07912 whole entry): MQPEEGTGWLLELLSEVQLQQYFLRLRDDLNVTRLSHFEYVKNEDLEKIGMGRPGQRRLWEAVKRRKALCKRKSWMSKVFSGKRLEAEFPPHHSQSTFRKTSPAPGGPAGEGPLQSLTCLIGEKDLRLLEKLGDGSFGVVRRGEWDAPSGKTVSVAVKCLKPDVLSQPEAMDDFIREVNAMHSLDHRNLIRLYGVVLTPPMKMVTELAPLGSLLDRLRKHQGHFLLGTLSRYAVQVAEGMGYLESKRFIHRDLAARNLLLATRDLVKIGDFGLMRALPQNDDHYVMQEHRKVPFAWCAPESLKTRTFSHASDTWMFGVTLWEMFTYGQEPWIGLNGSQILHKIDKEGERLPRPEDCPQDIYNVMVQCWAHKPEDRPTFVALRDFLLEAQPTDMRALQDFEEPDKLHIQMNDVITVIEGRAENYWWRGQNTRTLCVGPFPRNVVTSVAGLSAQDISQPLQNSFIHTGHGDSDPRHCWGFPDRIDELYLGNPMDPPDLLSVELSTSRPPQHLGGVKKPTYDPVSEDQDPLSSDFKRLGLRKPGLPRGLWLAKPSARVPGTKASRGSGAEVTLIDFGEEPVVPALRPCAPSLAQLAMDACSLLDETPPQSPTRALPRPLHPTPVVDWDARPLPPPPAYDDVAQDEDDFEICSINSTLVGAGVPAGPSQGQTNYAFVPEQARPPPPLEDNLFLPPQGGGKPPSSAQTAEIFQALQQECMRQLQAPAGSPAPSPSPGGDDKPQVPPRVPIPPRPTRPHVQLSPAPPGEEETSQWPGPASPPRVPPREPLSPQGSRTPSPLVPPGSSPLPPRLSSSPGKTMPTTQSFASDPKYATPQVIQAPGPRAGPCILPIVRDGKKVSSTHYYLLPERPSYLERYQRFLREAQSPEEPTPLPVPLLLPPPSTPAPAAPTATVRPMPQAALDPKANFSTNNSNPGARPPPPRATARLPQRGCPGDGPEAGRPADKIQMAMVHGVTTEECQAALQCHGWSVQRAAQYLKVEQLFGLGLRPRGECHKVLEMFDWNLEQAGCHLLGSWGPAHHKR
Chain of Serine/threonine-protein kinase PAK 2 (Q13177 whole entry): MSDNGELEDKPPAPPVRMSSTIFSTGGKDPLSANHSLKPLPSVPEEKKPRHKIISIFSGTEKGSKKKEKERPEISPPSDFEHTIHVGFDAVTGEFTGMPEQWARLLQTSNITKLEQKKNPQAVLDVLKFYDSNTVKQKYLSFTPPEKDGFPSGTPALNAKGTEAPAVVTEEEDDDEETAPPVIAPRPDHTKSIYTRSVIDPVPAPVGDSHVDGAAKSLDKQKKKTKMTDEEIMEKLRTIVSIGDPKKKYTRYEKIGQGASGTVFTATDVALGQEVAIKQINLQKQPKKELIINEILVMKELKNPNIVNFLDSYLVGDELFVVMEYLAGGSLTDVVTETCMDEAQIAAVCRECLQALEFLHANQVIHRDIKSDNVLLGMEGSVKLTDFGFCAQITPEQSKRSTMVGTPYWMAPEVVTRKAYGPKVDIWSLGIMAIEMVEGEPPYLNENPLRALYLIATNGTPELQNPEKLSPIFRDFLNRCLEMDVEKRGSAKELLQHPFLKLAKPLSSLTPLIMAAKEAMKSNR

Usually Kd stands for the equilibrium constant for the complex coming apart. Turning to `OCCn1cc(-c2cnc3nnn(Cc4ccc5ncccc5c4)c3n2)cn1` [PF-04217903], the Kd (in assay [1]; in assay [2]; in assay [3]; on DNA topoisomerase 2-beta; in assay [4]; in [5]) was > 30 µM (inactive) each time. In addition, the Kd in assay [6] and in assay [7] was > 30 µM (inactive) in each case.
For `CO[C@H]1C[C@@H]2CC[C@@H](C)[C@@](O)(O2)C(=O)C(=O)N2CCCC[C@H]2C(=O)O[C@H]([C@H](C)C[C@@H]2CC[C@@H](OCCO)[C@H](OC)C2)CC(=O)[C@H](C)/C=C(\C)[C@@H](O)[C@@H](OC)C(=O)[C@H](C)C[C@H](C)/C=C/C=C/C=C/1C` [EVEROLIMUS], the Kd (in [1]; in assay [2]; in assay [3]; on Activated CDC42 kinase 1; at DNA topoisomerase 2-beta; in assay [4]) was > 30 µM (inactive) in each case. The Kd in assay [5] and in assay [6] was > 30 µM (inactive) each time.
Turning to `CCn1c(-c2nonc2N)nc2c(C#CC(C)(C)O)ncc(OC[C@H]3CCCNC3)c21` [GSK-690693], the Kd (in assay [1]; in [2]; at DNA topoisomerase 2-beta; in assay [6]) was > 30 µM (inactive) each time.
With `Cc1cc(Nc2cc(N3CCN(C)CC3)nc(/C=C/c3ccccc3)n2)n[nH]1` [ENMD-2076], the Kd (in assay [1]; in assay [2]; on DNA topoisomerase 2-beta; in assay [4]; in [6]) was > 30 µM (inactive) throughout.
Take `COC(=O)[C@@]1(O)C[C@H]2O[C@]1(C)n1c3ccccc3c3c4c(c5c6ccccc6n2c5c31)C(=O)NC4` [K-252A]: the Kd in assay [1] is 0.908 µM (active); in [2], > 30 µM (inactive); in [3] it was > 30 µM (inactive); at DNA topoisomerase 2-beta it was > 30 µM (inactive); in assay [4], > 30 µM (inactive); in assay [6], > 30 µM (inactive). Moreover, the Kd in [7] was > 30 µM (inactive).
`Nc1nc(N)c2nc(-c3cccc(O)c3)c(-c3cccc(O)c3)nc2n1` [TG100-115]: the Kd (in assay [1]; in assay [2]; on DNA topoisomerase 2-beta; in [6]) was > 30 µM (inactive) each time.
`CN1CCN(c2ccc3nc(-c4c(N)c5c(F)cccc5[nH]c4=O)[nH]c3c2)CC1` [DOVITINIB]: the Kd (in [1]; in [2]; at DNA topoisomerase 2-beta; in [6]) was > 30 µM (inactive) each time.
For the molecule `Cc1cc2c(F)c(Oc3ncnn4cc(OC[C@@H](C)OC(=O)[C@H](C)N)c(C)c34)ccc2[nH]1` [BRIVANIB ALANINATE], the Kd (in assay [1]; in assay [2]; in assay [3]; on Activated CDC42 kinase 1; on DNA topoisomerase 2-beta; in [4]) was > 30 µM (inactive) throughout. Moreover, the Kd in assay [5] and in [6] was > 30 µM (inactive) throughout.
For the molecule `O=C(Nc1cccc(Cl)c1)Nc1ncc(CCNc2ncnc3ccsc23)s1` [SNS-314], the Kd (in assay [1]; in assay [2]; in [3]; at DNA topoisomerase 2-beta; in assay [4]; in assay [6]) was > 30 µM (inactive) in each case.
Consider `COc1cc2nccc(Oc3ccc(NC(=O)Nc4cc(C)on4)c(Cl)c3)c2cc1OC` [TIVOZANIB], for which the Kd (in [1]; in [2]; in assay [3]; on Activated CDC42 kinase 1; on DNA topoisomerase 2-beta; in assay [4]) was > 30 µM (inactive) throughout. The Kd in assay [5] and in assay [6] was > 30 µM (inactive) throughout.
For the molecule `Cc1nc(N)sc1-c1ccnc(Nc2ccc(N3CCOCC3)cc2)n1` [CYC-116], the Kd in assay [1] is > 30 µM (inactive); in [2], > 30 µM (inactive); in assay [3], 0.133 µM (active); on DNA topoisomerase 2-beta it was > 30 µM (inactive); in [4], > 30 µM (inactive); in assay [6], > 30 µM (inactive).
On to `CN(C)C(=O)c1cc2cnc(Nc3ccc(N4CCNCC4)cn3)nc2n1C1CCCC1` [RIBOCICLIB], for which the Kd (in assay [1]; in [2]; in assay [3]; at Activated CDC42 kinase 1; on DNA topoisomerase 2-beta; in assay [4]) was > 30 µM (inactive) throughout. The Kd in assay [5] and in [6] was > 30 µM (inactive) each time.
`COCCNCc1ccc(-c2cc3nccc(Oc4ccc(NC(=S)NC(=O)Cc5ccc(F)cc5)cc4F)c3s2)nc1` [GLESATINIB]: the Kd (in [1]; in assay [2]; in assay [3]; on Activated CDC42 kinase 1; at DNA topoisomerase 2-beta; in assay [4]) was > 30 µM (inactive) throughout. The dissociation constant (Kd) is 2.68 µM (active) in assay [5] and > 30 µM (inactive) in [6].
For the molecule `Cc1cn(-c2cc(NC(=O)c3ccc(C)c(Nc4nccc(-c5cccnc5)n4)c3)cc(C(F)(F)F)c2)cn1` [NILOTINIB], the Kd (in assay [1]; in assay [2]; at DNA topoisomerase 2-beta; in assay [6]) was > 30 µM (inactive) each time.
